Laboratory results taken from patent US11891634B2, “PDE5A destabilizing domains” (The Board of Trustees of the Leland Stanford Junior …, priority 2017, dated 2024).

What was measured:
Format in all cases: cell-based, human
[1] = tested on: HCT 116 cells transduced with the PDE5A DD derived GFP constructs; assay: Response to Tadalafil, GFP expression by FACS in HCT116; conditions: for MFI / Stabilization ratio with Tadalafil: 48 hours, HCT116; for Basal expression: Table 21, MFI with DMSO / parental HCT116, Tadalafil experiment
Protocol: (§1) PDE5AN (#3) was cloned as AcGFP fusion into pELNS vector carrying mCherry marker and packaged in lentiviral vectors. HCT116 cells were transduced with the construct and stable integrants were selected by cell sorting using mCherry marker. Cells were treated with vehicle (dimethyl sulfoxide, DMSO) or varying doses of Tadalafil (TDF) for 48 hrs with doses ranging from 0.01 μM to 100 μM. Following the treatment, cells were analyzed for GFP expression using FACS. Basal expression was calculated as the ratio of GFP signal in the absence of ligand for a given cell line to auto fluorescence of parental HCT-116 cells. Stabilization ratio was calculated as the ratio of the GFP signal observed in the presence of stabilizing ligand to the signal from the same cell line in the absence of ligand.
HCT 116 cells transduced with the PDE5A DD derived GFP constructs were also tested with increasing doses of Tadalafil. The HCT116 cells were incubated for 48 hours with Tadalafil starting at dose 0.01 μM to 100 μM. The GFP intensity of the Tadalafil treated samples was compared to the parental untransduced HCT116 and DMSO treated cells for each construct. The mean fluorescence intensity was calculated for each sample and used to calculate the stabilization ratios as well as the basal expression for each construct. The stabilization ratios are shown in Table 19 and Table 20 and the basal expression is show in Table 21.

[2] = tested on: HCT 116 cells transduced with the PDE5A DD derived GFP constructs; assay: Response to Vardenafil, GFP expression by FACS in HCT116; conditions: for MFI / Stabilization ratio with Vardenafil: 48 hours, HCT116; for Basal (DMSO/Parental): Table 10, GFP signal without ligand / auto fluorescence of parental HCT-116; for Basal: Table 15, MFI with DMSO / parental HCT116, Vardenafil experiment
Protocol: as §1, with “Mutations were created in PDE5A (535-860) catalytic domain using site directed mutagenesis and the mutants were” for “PDE5AN (#3) was”, “constructs” for “construct”, “10 μM Vardenafil (VDF)” for “varying doses of Tadalafil (TDF)”, “hours.” for “hrs with doses ranging from 0.01 μM to 100 μM.”
HCT 116 cells transduced with the PDE5A DD derived GFP constructs were also tested with increasing doses of Vardenafil. The HCT116 cells were incubated for 48 hours with Vardenafil starting at a dose of 0.002 μM to 30 μM. The GFP intensity of the Vardenafil treated samples was compared to the parental untransduced HCT116 and DMSO treated cells for each construct. The mean fluorescence intensity was calculated for each sample and used to calculate the stabilization ratios as well as the basal expression for each construct. The GFP expression was measured using flow cytometry and the mean fluorescence intensity (MFI) was calculated for each sample. The stabilization ratios are shown in Table 13 and Table 14 and the basal expression is show in Table 15.

[3] = tested on: HCT116 cells transduced with the constructs; assay: Response to Sildenafil, GFP expression by flow cytometry in HCT116; conditions: for MFI / Stabilization ratio with Sildenafil: 48 hours, HCT116; for Basal expression: Table 26, MFI with DMSO / parental HCT116, Sildenafil experiment
Protocol: Similar experiments were performed in HCT116 cells using sildenafil. The above-mentioned DDs were cloned as AcGFP fusion into pELNS vector carrying mCherry marker and packaged in lentiviral vectors. HCT116 cells were transduced with the constructs and stable integrants were selected by cell sorting using mCherry marker. Cells were treated with sildenafil at the following μM concentrations: 0.01, 0.02, 0.05, 0.14, 0.41, 1.23, 3.7, 11.11, 33.33, and 100 for a duration of 48 hours. The fluorescence was analyzed by flow cytometry and the mean fluorescence intensity was calculated for all samples. […] The stabilization ratios are shown in Table 24 and Table 25 and the basal expression is show in Table 26.

## PDE5AC (#43): AcGFP fused to C-terminal DD 535-860 of PDE5A (Q589R, N609H, Y676N, A762S), SEQ ID NO. 29
[1]; DMSO (no Tadalafil)
  MFI: 10998
[1]
  Basal expression: 8.59
[1]; Tadalafil 0.01 μM vs DMSO
  Stabilization ratio with Tadalafil: 1.0
[1]; Tadalafil 0.01 μM
  MFI: 11444
[1]; Tadalafil 0.02 μM vs DMSO
  Stabilization ratio with Tadalafil: 1.0
[1]; Tadalafil 0.02 μM
  MFI: 11479
[1]; Tadalafil 0.05 μM vs DMSO
  Stabilization ratio with Tadalafil: 1.1
[1]; Tadalafil 0.05 μM
  MFI: 11764
[1]; Tadalafil 0.14 μM vs DMSO
  Stabilization ratio with Tadalafil: 1.2
[1]; Tadalafil 0.14 μM
  MFI: 13429
[1]; Tadalafil 0.41 μM vs DMSO
  Stabilization ratio with Tadalafil: 1.7
[1]; Tadalafil 0.41 μM
  MFI: 18940
[1]; Tadalafil 1.23 μM vs DMSO
  Stabilization ratio with Tadalafil: 2.9
[1]; Tadalafil 1.23 μM
  MFI: 32204
[1]; Tadalafil 3.7 μM vs DMSO
  Stabilization ratio with Tadalafil: 4.5
[1]; Tadalafil 3.7 μM
  MFI: 49646
[1]; Tadalafil 11.11 μM vs DMSO
  Stabilization ratio with Tadalafil: 5.8
[1]; Tadalafil 11.11 μM
  MFI: 64186
[1]; Tadalafil 33.33 μM vs DMSO
  Stabilization ratio with Tadalafil: 6.8
[1]; Tadalafil 33.33 μM
  MFI: 74446
[1]; Tadalafil 100 μM vs DMSO
  Stabilization ratio with Tadalafil: 6.9
[1]; Tadalafil 100 μM
  MFI: 76281
[2]; DMSO (no Vardenafil)
  MFI: 12047
[2]
  Basal (DMSO/Parental): 8.7
  Basal: 6.17
[2]; Vardenafil 0.002 μM vs DMSO
  Stabilization ratio with Vardenafil: 1.1
[2]; Vardenafil 0.002 μM
  MFI: 13329
[2]; Vardenafil 0.005 μM
  MFI: 17702
[2]; Vardenafil 0.014 μM vs DMSO
  Stabilization ratio with Vardenafil: 2.8
[2]; Vardenafil 0.014 μM
  MFI: 33483
[2]; Vardenafil 0.041 μM vs DMSO
  Stabilization ratio with Vardenafil: 4.6
[2]; Vardenafil 0.041 μM
  MFI: 55300
[2]; Vardenafil 0.123 μM vs DMSO
  Stabilization ratio with Vardenafil: 5.8
[2]; Vardenafil 0.123 μM
  MFI: 70385
[2]; Vardenafil 0.370 μM vs DMSO
  Stabilization ratio with Vardenafil: 6.5
[2]; Vardenafil 0.370 μM
  MFI: 78215
[2]; Vardenafil 1.111 μM vs DMSO
  Stabilization ratio with Vardenafil: 6.9
[2]; Vardenafil 1.111 μM
  MFI: 83052
[2]; Vardenafil 3.333 μM vs DMSO
  Stabilization ratio with Vardenafil: 7.4
[2]; Vardenafil 3.333 μM
  MFI: 88707
[2]; Vardenafil 10 μM vs DMSO
  Stabilization ratio with Vardenafil: 7.1
[2]; Vardenafil 10 μM
  MFI: 85867
[2]; Vardenafil 30 μM vs DMSO
  Stabilization ratio with Vardenafil: 7.2
[2]; Vardenafil 30 μM
  MFI: 86318
[3]; DMSO (no Sildenafil)
  MFI: 11147
[3]; Sildenafil 0.01 μM vs DMSO
  Stabilization ratio with Sildenafil: 1.1
[3]; Sildenafil 0.01 μM
  MFI: 11962
[3]; Sildenafil 0.02 μM vs DMSO
  Stabilization ratio with Sildenafil: 1.1
[3]; Sildenafil 0.02 μM
  MFI: 11940
[3]; Sildenafil 0.05 μM vs DMSO
  Stabilization ratio with Sildenafil: 1.4
[3]; Sildenafil 0.05 μM
  MFI: 15203
[3]; Sildenafil 0.14 μM
  MFI: 24319
[3]; Sildenafil 0.41 μM vs DMSO
  Stabilization ratio with Sildenafil: 3.6
[3]; Sildenafil 0.41 μM
  MFI: 40470
[3]; Sildenafil 1.23 μM vs DMSO
  Stabilization ratio with Sildenafil: 5.2
[3]; Sildenafil 1.23 μM
  MFI: 57723
[3]; Sildenafil 3.70 μM vs DMSO
  Stabilization ratio with Sildenafil: 6.6
[3]; Sildenafil 3.70 μM
  MFI: 73400
[3]; Sildenafil 11.11 μM vs DMSO
  Stabilization ratio with Sildenafil: 6.9
[3]; Sildenafil 11.11 μM
  MFI: 76900
[3]; Sildenafil 33.33 μM vs DMSO
  Stabilization ratio with Sildenafil: 8.5
[3]; Sildenafil 33.33 μM
  MFI: 94863
[3]; Sildenafil 100.00 μM vs DMSO
  Stabilization ratio with Sildenafil: 5.1
[3]; Sildenafil 100.00 μM
  MFI: 56552
[3]
  Basal expression: 8.7

## PDE5AC (#28): AcGFP fused to C-terminal DD 535-860 of PDE5A (Q589R, K591E, N609H, D764V), SEQ ID NO. 25
[1]; DMSO (no Tadalafil)
  MFI: 15004
[1]
  Basal expression: 11.72
[1]; Tadalafil 0.01 μM vs DMSO
  Stabilization ratio with Tadalafil: 0.9
[1]; Tadalafil 0.01 μM
  MFI: 14073
[1]; Tadalafil 0.02 μM vs DMSO
  Stabilization ratio with Tadalafil: 1.0
[1]; Tadalafil 0.02 μM
  MFI: 14513
[1]; Tadalafil 0.05 μM vs DMSO
  Stabilization ratio with Tadalafil: 1.0
[1]; Tadalafil 0.05 μM
  MFI: 15730
[1]; Tadalafil 0.14 μM vs DMSO
  Stabilization ratio with Tadalafil: 1.2
[1]; Tadalafil 0.14 μM
  MFI: 18316
[1]; Tadalafil 0.41 μM vs DMSO
  Stabilization ratio with Tadalafil: 1.9
[1]; Tadalafil 0.41 μM
  MFI: 28462
[1]; Tadalafil 1.23 μM vs DMSO
  Stabilization ratio with Tadalafil: 3.0
[1]; Tadalafil 1.23 μM
  MFI: 44739
[1]; Tadalafil 3.7 μM vs DMSO
  Stabilization ratio with Tadalafil: 4.6
[1]; Tadalafil 3.7 μM
  MFI: 69430
[1]; Tadalafil 11.11 μM vs DMSO
  Stabilization ratio with Tadalafil: 5.7
[1]; Tadalafil 11.11 μM
  MFI: 85998
[1]; Tadalafil 33.33 μM vs DMSO
  Stabilization ratio with Tadalafil: 6.3
[1]; Tadalafil 33.33 μM
  MFI: 95189
[1]; Tadalafil 100 μM vs DMSO
  Stabilization ratio with Tadalafil: 6.5
[1]; Tadalafil 100 μM
  MFI: 97016
[2]; DMSO (no Vardenafil)
  MFI: 13817
[2]
  Basal (DMSO/Parental): 10.4
  Basal: 7.07
[2]; Vardenafil 0.002 μM vs DMSO
  Stabilization ratio with Vardenafil: 1.1
[2]; Vardenafil 0.002 μM
  MFI: 15437
[2]; Vardenafil 0.005 μM
  MFI: 19446
[2]; Vardenafil 0.014 μM vs DMSO
  Stabilization ratio with Vardenafil: 2.1
[2]; Vardenafil 0.014 μM
  MFI: 29314
[2]; Vardenafil 0.041 μM vs DMSO
  Stabilization ratio with Vardenafil: 3.3
[2]; Vardenafil 0.041 μM
  MFI: 45804
[2]; Vardenafil 0.123 μM vs DMSO
  Stabilization ratio with Vardenafil: 5.4
[2]; Vardenafil 0.123 μM
  MFI: 74153
[2]; Vardenafil 0.370 μM vs DMSO
  Stabilization ratio with Vardenafil: 5.9
[2]; Vardenafil 0.370 μM
  MFI: 81663
[2]; Vardenafil 1.111 μM vs DMSO
  Stabilization ratio with Vardenafil: 6.5
[2]; Vardenafil 1.111 μM
  MFI: 89426
[2]; Vardenafil 3.333 μM vs DMSO
  Stabilization ratio with Vardenafil: 6.7
[2]; Vardenafil 3.333 μM
  MFI: 92290
[2]; Vardenafil 10 μM vs DMSO
  Stabilization ratio with Vardenafil: 6.3
[2]; Vardenafil 10 μM
  MFI: 86985
[2]; Vardenafil 30 μM vs DMSO
  Stabilization ratio with Vardenafil: 6.7
[2]; Vardenafil 30 μM
  MFI: 93145
[3]; DMSO (no Sildenafil)
  MFI: 13208
[3]; Sildenafil 0.01 μM vs DMSO
  Stabilization ratio with Sildenafil: 1.1
[3]; Sildenafil 0.01 μM
  MFI: 14613
[3]; Sildenafil 0.02 μM vs DMSO
  Stabilization ratio with Sildenafil: 1.2
[3]; Sildenafil 0.02 μM
  MFI: 16502
[3]; Sildenafil 0.05 μM vs DMSO
  Stabilization ratio with Sildenafil: 1.3
[3]; Sildenafil 0.05 μM
  MFI: 17801
[3]; Sildenafil 0.14 μM vs DMSO
  Stabilization ratio with Sildenafil: 2.0
[3]; Sildenafil 0.14 μM
  MFI: 26694
[3]; Sildenafil 0.41 μM vs DMSO
  Stabilization ratio with Sildenafil: 3.3
[3]; Sildenafil 0.41 μM
  MFI: 43862
[3]; Sildenafil 1.23 μM vs DMSO
  Stabilization ratio with Sildenafil: 5.0
[3]; Sildenafil 1.23 μM
  MFI: 65762
[3]; Sildenafil 3.70 μM vs DMSO
  Stabilization ratio with Sildenafil: 6.3
[3]; Sildenafil 3.70 μM
  MFI: 83657
[3]; Sildenafil 11.11 μM vs DMSO
  Stabilization ratio with Sildenafil: 6.1
[3]; Sildenafil 11.11 μM
  MFI: 80269
[3]; Sildenafil 33.33 μM vs DMSO
  Stabilization ratio with Sildenafil: 6.3
[3]; Sildenafil 33.33 μM
  MFI: 83663
[3]; Sildenafil 100.00 μM vs DMSO
  Stabilization ratio with Sildenafil: 6.1
[3]
  Basal expression: 10.3
